Source: patent US4190575A, “Polypeptides related to somatostatin” (American Home Products Corporation, priority 1977, dated 1980)
Where two headings read alike, the source gives them in different places. Bridge positions count the residues as written; N and C are the ends. Square brackets hold non-standard residues; d marks the D form. Peptide text beside a SMILES is read from it.

What was measured:
Type in all cases: in vivo
growth hormone (GH) = assay: Arginine-stimulated growth hormone (GH) in Nembutal-treated rats, radioimmunoassay; set-up: GH: reference not given here; settings: for GH: albino male rats, *p<0.01
Description: (§1) The biological activity of the peptides of Examples 2 and 4 were determined by the following procedure:
(§2) Albino male rats are administered Nembutal intraperitoneally at a dose of 50 milligrams per kilogram. Fifteen minutes later a subcutaneous injection of the test compound of physiological saline is administered. Ten minutes later 0.5 milliliters of arginine (300 milligrams per milliliter, pH 7.2) is injected into the heart. Five minutes after receipt of the arginine the rats are decapitated and blood is collected into trasylol-EDTA. An appropriate aliquot is assayed for growth hormone (GH), insulin, and glucagon by radioimmunoassay.

insulin = assay: Arginine-stimulated insulin in Nembutal-treated rats, radioimmunoassay; set-up: effect on insulin levels: dose or concentration left out as unconfirmed; settings: for Insulin: albino male rats
Description: as §1, §2

glucagon = assay: Arginine-stimulated glucagon in Nembutal-treated rats, radioimmunoassay; settings: for Glucagon: albino male rats, *p<0.01
Description: as §1, §2

GH secretion = assay: Duration of effect on GH secretion in rats treated with Nembutal; set-up: duration of significant inhibition of GH: dose or concentration left out as unconfirmed
Description: The peptides of Examples 2 and 4 were also tested for duration of their effect on GH secretion in rats treated with Nembutal.

[1] = dose 200 ug/kg subcutaneous, blood 15 min after compound, 5 min after arginine
[2] = dose 200 ug/kg subcutaneous, blood 15 min after compound, 5 min after arginine, *p<0.01

Compound	GH (growth hormone (GH); dose 40 ug/kg subcutaneous) [ng/mL]	GH (growth hormone (GH); [1]) [ng/mL]	reducing growth hormone (growth hormone (GH); dose of 40 mg/kg)	Insulin (insulin; dose 40 ug/kg subcutaneous) [μU/ml.]	Insulin (insulin; [2]) [μU/ml.]	effect on insulin levels (insulin; dose of 40)	Glucagon (glucagon; dose 40 ug/kg subcutaneous) [pg/mL]	Glucagon (glucagon; [1]) [pg/mL]	reducing glucagon (glucagon; dose of 40 mg/kg)	inhibition of GH at 2 and 4 hours (GH secretion; at 2 and 4 hours)	GH (growth hormone (GH); dose 50 ug/kg subcutaneous) [ng/mL]	reducing growth hormone (growth hormone (GH); dose of 50 mg/kg)	Insulin (insulin; dose 50 ug/kg subcutaneous) [μU/ml.]	effect on insulin levels (insulin; dose of 50)	reducing glucagon (glucagon)	Glucagon (glucagon; dose 50 ug/kg subcutaneous) [pg/mL]	duration of significant inhibition of GH (GH secretion; (S.C.))
C[C@@H](O)[C@@H]1NC(=O)[C@H](Cc2ccccc2)NC(=O)[C@H]([C@@H](C)O)NC(=O)[C@H](CCCCN)NC(=O)[C@@H](Cc2c[nH]c3ccccc23)NC(=O)[C@H](Cc2ccccc2)NC(=O)[C@H](Cc2ccccc2)NC(=O)[C@H](CCC(=O)O)NC(=O)[C@H](CCCNC(=N)N)NC(=O)[C@@H](N)CSSC[C@@H](C(=O)O)NC(=O)[C@H](CO)NC1=O [Example 2, L-Cysteinyl-L-arginyl-L-glutamyl-L-phenylalanyl-L-phenylalanyl-D-tryptophyl-L-lysyl-L-threonyl-L-phenylalanyl-L-threonyl-L-seryl-L-cysteine cyclic (1-12) disulfide] (H-CREFF[dW]KTFTSC-OH; disulfide 1-12)	28 ± 5	42 ± 6	effective agents for reducing growth hormone	158 ± 57	115 ± 16	without materially affecting insulin levels	12 ± 2	1.5 ± 1	effective agents for reducing growth hormone and glucagon	–	–	–	–	–	–	–	–
C[C@@H](O)[C@@H]1NC(=O)[C@H](Cc2ccccc2)NC(=O)[C@H]([C@@H](C)O)NC(=O)[C@H](CCCCN)NC(=O)[C@@H](Cc2c[nH]c3ccccc23)NC(=O)[C@H](Cc2ccccc2)NC(=O)[C@H](Cc2ccccc2)NC(=O)[C@H](CCC(=O)O)NC(=O)[C@H](Cc2c[nH]cn2)NC(=O)[C@@H](N)CSSC[C@@H](C(=O)O)NC(=O)[C@H](CO)NC1=O [Example 4, L-Cysteinyl-L-histidyl-L-glutamyl-L-phenylalanyl-L-phenylalanyl-D-tryptophyl-L-lysyl-L-threonyl-L-phenylalanyl-L-threonyl-L-seryl-L-cysteine cyclic (1-12) disulfide] (H-CHEFF[dW]KTFTSC-OH; disulfide 1-12)	–	107 ± 29	–	–	205 ± 36	–	–	4 ± 2	–	no significant inhibition of GH	84 ± 17	effective agents for reducing growth hormone	322 ± 40	without materially affecting insulin levels	effective agents for reducing growth hormone and glucagon	10 ± 4	–
tert-Butyloxycarbonyl-S-p-methoxybenzyl-L-cysteinyl-N^gn -tosyl-L-arginyl-γ-benzyl-L-glutamyl-L-phenylalanyl-L-phenylalanyl-D-tryptophyl-N^ε -2-chloro-benzyloxycarbonyl-L-lysyl-O-benzyl-L-threonyl-L-phenylalanyl-O-benzyl-L-threonyl-O-benzyl-L-seryl-S-p-methoxybenzyl-L-cysteine hydroxymethyl-polystyrene ester [Example 1]	–	–	–	–	–	–	–	–	–	–	–	–	–	–	–	–	at least 4 hours
